Here are results for 30 compounds from US20250034116A1, “1,4-DIHETEROCYCLIC SUBSTITUTED AROMATIC RING OR AROMATIC HETEROCYCLIC COMPOUND AND USE THEREOF” (BeBetter Med Inc., priority 2022, published 2025).

Data set [1] concerns CYP enzymes in human liver microsomes (HLM). Kind of data set: Inhibition of 20-HETE production in human liver microsomes (HLM). The format is biochemical. The procedure: (§1) Experimental principle: The inhibitory activity of 20-HETE production is evaluated by testing the inhibitory effects of the compound on human liver microsomes (HLM), rat liver microsomes (RLM), mouse liver microsomes (MLM), or […] CYP4 subtype enzymes (CYP4F2). This assay employs HLM, RLM, or MLM along with recombinant CYP4F2 (rCYP4F2) and recombinant CYP4A11 (rCYP4A11), which are […] CYP4 subtype enzymes, to detect the effects of the test compound at different concentrations on the metabolic rate of enzyme-specific substrates, to determine the inhibitory effects of the test compound on CYP enzymes in HLM, RLM, or MLM.
(§2) Experimental methods: Dissolve the test compound in DMSO, and subsequently dilute it with an acetonitrile and DMSO mixture (3:1). Add 2 μl of varying concentrations of the test compound and 100 μl of potassium phosphate buffer containing either liver microsomes or recombinant enzymes to a 96-well plate. After mixing well, transfer 30 μl to another well (in duplicate), add 15 μl of 400 μM substrate solution, and mix well again. Preheat at 37° C. for 10 minutes, and then add 15 μl of 6 mM NADPH and incubate at 37° C. for 25 minutes. After 25 minutes, add 160 μl of acetonitrile solution (containing 0.1 μg/ml internal standard) to stop the reaction. Mix well, centrifuge at 3500 g for 15 minutes, and then analyze the supernatant using LC-MS/MS.
(§3) Plot the compound concentration on the x-axis and the inhibition rate on the y-axis to draw the curve. Use GraphPad Prism 5 software to fit the curve and calculate the IC50. The formula is Y=Bottom+(Top−Bottom)/(1+10^((Log IC50−X)×HillSlope)). X represents the logarithmic concentration of the inhibitor, and Y represents the relative enzyme activity at a given inhibitor concentration (relative to the condition without the inhibitor).
(§4) Calculate the inhibition percentages at concentrations of 1000 nM, 500 nM, or 100 nM as well as the half-maximal inhibitory concentration (IC50) of the test compound from the above experiment.

For data set [2], the system named is CYP enzymes in rat liver microsomes (RLM). Kind of data set: Inhibition of 20-HETE production in rat liver microsomes (RLM). The format is biochemical. The procedure:
as §1, §2, §3, §4

Consider `O=C(C1CCCCC1O)N1CCC(c2ccc(-c3cn[nH]c3)cc2F)CC1` (single isomer, unassigned) [Compound 149a, (4-(2-fluoro-4-(1H-pyrazol-4-yl)phenyl)piperidin-1-yl)(2-hydroxycyclohexyl) methanone], for which the “HLM (% inh @ 100 nM)” value in data set [1] was 84.74%.
`O=C1CCCN1CC1CCN(c2cc(F)c(-c3cn[nH]c3)cc2F)CC1` [Compound 6, 1-((1-(2,5-difluoro-4-(1H-pyrazol-4-yl)phenyl)piperidin-4-yl)methyl)pyrrolidin-2-one]: the “HLM (% inh @ 500 nM)” value in data set [1] was 67.30%. Besides, in data set [2], the “RLM (% inh @ 500 nM)” value was 23.02%.
Turning to `O=C1CCCN1CC1CCN(c2ccc(-c3cn[nH]c3)cc2C(F)(F)F)CC1` [Compound 10, 1-((1-(4-(1H-pyrazol-4-yl)-2-(trifluoromethyl)phenyl)piperidin-4-yl)methyl)pyrrolidin-2-one], the IC50 was determined as 46.1 nM in data set [1] and 542 nM in data set [2].
Turning to `Cc1cc(-c2cn[nH]c2)ccc1N1CCC(CN2CCCC2=O)CC1` [Compound 12, 1-((1-(2-methyl-4-(1H-pyrazol-4-yl)phenyl)piperidin-4-yl)methyl)pyrrolidin-2-one], the “HLM (% inh @ 500 nM)” value in data set [1] is 76.91%. For the same compound, the “RLM (% inh @ 500 nM)” value in data set [2] was 17.99%.
Taken in the same sequence, the figures for `N#Cc1cc(-c2cn[nH]c2)ccc1N1CCC(CN2CCCC2=O)CC1` [Compound 13, 2-(4-((2-oxopyrrolidin-1-yl)methyl)piperidin-1-yl)-5-(1H-pyrazol-4-yl)benzonitrile] were 58.98% and −4.72%.
For `COc1cc(-c2cn[nH]c2)ccc1N1CCC(CN2CCCC2=O)CC1` [Compound 14, 1-((1-(2-methoxy-4-(1H-pyrazol-4-yl)phenyl)piperidin-4-yl)methyl)pyrrolidin-2-one], the “HLM (% inh @ 500 nM)” value in data set [1] turned out to be 41.24%.
With `O=Cc1cc(-c2cn[nH]c2)ccc1N1CCC(CN2CCCC2=O)CC1` [Compound 15, 2-(4-((2-oxopyrrolidin-1-yl)methyl)piperidin-1-yl)-5-(1H-pyrazol-4-yl)benzaldehyde], the “HLM (% inh @ 500 nM)” value in data set [1] came to 64.22%. Also, the “RLM (% inh @ 500 nM)” value in data set [2] was determined as 12.62%.
Turning to `NC(=O)c1cc(-c2cn[nH]c2)ccc1N1CCC(CN2CCCC2=O)CC1` [Compound 16, 2-(4-((2-oxopyrrolidin-1-yl)methyl)piperidin-1-yl)-5-(1H-pyrazol-4-yl)benzamide], the “HLM (% inh @ 500 nM)” value in data set [1] turned out to be 41.22%.
Take `O=C1CCCN1CC1CCN(c2ccc(-c3cn[nH]c3)cc2CO)CC1` [Compound 17, 1-((1-(2-(hydroxymethyl)-4-(1H-pyrazol-4-yl)phenyl)piperidin-4-yl)methyl)pyrrolidin-2-one]: in data set [1], the “HLM (% inh @ 500 nM)” value is listed as 65.27%. In addition, in data set [2], the “RLM (% inh @ 500 nM)” value came out at 17.66%.
Taken in the same sequence, the figures for `COC(=O)c1cc(-c2cn[nH]c2)ccc1N1CCC(CN2CCCC2=O)CC1` [Compound 18, methyl 2-(4-((2-oxopyrrolidin-1-yl)methyl)piperidin-1-yl)-5-(1H-pyrazol-4-yl)benzoate] were 47.87% and 8.61%.
On to `CN(C)c1cc(-c2cn[nH]c2)ccc1N1CCC(CN2CCCC2=O)CC1` [Compound 20, 1-((1-(2-(dimethylamino)-4-(1H-pyrazol-4-yl)phenyl)piperidin-4-yl)methyl)pyrrolidin-2-one], for which the “HLM (% inh @ 500 nM)” value in data set [1] was found to be 36.16%.
Same read-out and setting: as for `O=C1CCCN1CC1CCN(c2ccc(-c3cn[nH]c3)cn2)CC1` [Compound 21, 1-((1-(5-(1H-pyrazol-4-yl)pyridin-2-yl)piperidin-4-yl)methyl)pyrrolidin-2-one], the figure is 40.01%.
Take `O=C1CCCN1CC1CCN(c2ccc(-c3cn[nH]c3)nc2)CC1` [Compound 22, 1-((1-(6-(1H-pyrazol-4-yl)pyridin-3-yl)piperidin-4-yl)methyl)pyrrolidin-2-one]: the “HLM (% inh @ 500 nM)” value in data set [1] is given as 53.10%. The “RLM (% inh @ 500 nM)” value in data set [2] is on record as 34.61%.
As for `O=C1CCCN1CC1CCN(c2ncc(-c3cn[nH]c3)cn2)CC1` [Compound 23, 1-((1-(5-(1H-pyrazol-4-yl)pyrimidin-2-yl)piperidin-4-yl)methyl)pyrrolidine-2-one], in data set [1], the “HLM (% inh @ 500 nM)” value is −24.84%.
Regarding `O=C1CCC(=O)N1CC1CCN(c2ccc(-c3cn[nH]c3)cc2)CC1` [Compound 28, 1-((1-(4-(1H-pyrazol-4-yl)phenyl)piperidin-4-yl)methyl)pyrrolidine-2,5-dione], in data set [1], the “HLM (% inh @ 500 nM)” value amounted to 55.98%. In data set [2], the “RLM (% inh @ 500 nM)” value worked out at 16.98%.
The like results for `O=C1N(CC2CCN(c3ccc(-c4cn[nH]c4)cc3)CC2)CCC12CCCCC2` [Compound 31, 2-((1-(4-(1H-pyrazol-4-yl)phenyl)piperidin-4-yl)methyl)-2-azaspiro[4.5]decan-1-one] were, in that order, 68.02% and 14.73%.
As for `O=C1C2CCC(C2)N1CC1CCN(c2ccc(-c3cn[nH]c3)cc2)CC1` (stereo not shown) [Compound 33, 2-((1-(4-(1H-pyrazol-4-yl)phenyl)piperidin-4-yl)methyl)-2-azabicyclo[2.2.1]heptan-3-one], in data set [1], the “HLM (% inh @ 500 nM)” value was found to be 61.47%. Also, the “RLM (% inh @ 500 nM)” value in data set [2] is on record as 8.80%.
The like results for `O=C1CCCN1CC1CCN(c2ccc(-c3cnoc3)c(F)c2F)CC1` [Compound 37, 1-((1-(2,3-difluoro-4-(isoxazol-4-yl)phenyl)piperidin-4-yl)methyl)pyrrolidin-2-one] were, in that order, 82.89% and 59.01%.
Taken in the same sequence, the figures for `c1cc(N2CCC(CN3CCCC3)CC2)ccc1-c1cn[nH]c1` [Compound 40, 1-(4-(1H-pyrazol-4-yl)phenyl)-4-(pyrrolidin-1-ylmethyl)piperidine] were 52.40% and 26.22%.
With `O=C(C1CCN(c2ccc(-c3cn[nH]c3)cc2)CC1)N1CCNCC1` [Compound 51, (1-(4-(1H-pyrazol-4-yl)phenyl)piperidin-4-yl)(piperazin-1-yl) methanone], in data set [1], the “HLM (% inh @ 500 nM)” value turned out to be 30.17%.
On the same count and under the same terms, in the case of `O=C1CCCN1Cc1ccc2c(c1)CN(c1ccc(-c3cn[nH]c3)cc1)C2` [Compound 126, 1-(2-(4-(1H-pyrazol-4-yl)phenyl)isoindolin-5-ylmethyl)pyrrolidin-2-one] it was 64.15%.
`O=C(N1CCN(c2ccc(-c3cn[nH]c3)cc2F)CC1)N1CC2CCCC2C1` (stereo not shown) [Compound 133, (4-(2-fluoro-4-(1H-pyrazol-4-yl)phenyl)piperazin-1-yl)(hexahydrocyclopenta[c]pyrrol-2 (1H)-yl) methanone]: the “HLM (% inh @ 100 nM)” value in data set [1] is recorded as 87.90%.
In turn, `O=S(=O)(c1ccc(F)cc1)N1CCN(c2ccc(-c3cn[nH]c3)cc2F)CC1` [Compound 134, 1-(2-fluoro-4-(1H-pyrazol-4-yl)phenyl)-4-((4-fluorophenyl)sulfonyl)piperazine] registered an IC50 in data set [1] of 21.9 nM.
In the case of `O=C(N1CCC(c2ccc(-c3cn[nH]c3)cc2)CC1)C1(O)CCCCC1` [Compound 139, (4-(4-(1H-pyrazol-4-yl)phenyl)piperidin-1-yl)(1-hydroxycyclohexyl) methanone], the “HLM (% inh @ 100 nM)” value in data set [1] is recorded as 88.13%.
Consider `O=C(C1CCCC(O)C1)N1CCC(c2ccc(-c3cn[nH]c3)cc2F)CC1` (stereo not shown) [Compound 148, (4-(2-fluoro-4-(1H-pyrazol-4-yl)phenyl)piperidin-1-yl)(3-hydroxycyclohexyl) methanone], for which the “HLM (% inh @ 100 nM)” value in data set [1] amounted to 85.60%.
Take `CC(C)(O)CC(=O)N1CCC(c2ccc(-c3cn[nH]c3)cc2F)CC1` [Compound 151, 1-(4-(2-fluoro-4-(1H-pyrazol-4-yl)phenyl)piperidin-1-yl)-3-hydroxy-3-methylbutan-1-one]: the “HLM (% inh @ 100 nM)” value in data set [1] turned out to be 82.28%.
In data set [1], `O=C(C1CCN(c2ccc(-c3cn[nH]c3)cc2F)CC1)N1Cc2ccccc2C1` [Compound 156, (1-(2-fluoro-4-(1H-pyrazol-4-yl)phenyl)piperidin-4-yl)(isoindolin-2-yl) methanone] registered an IC50 of 26.2 nM. In other words, the double-digit nanomolar range.
On the same count and under the same terms, in the case of `O=C(C1CCN(c2ccc(-c3cn[nH]c3)cc2)CC1)N1Cc2cccnc2C1` [Compound 157, (1-(4-(1H-pyrazol-4-yl)phenyl)piperidin-4-yl)(5,7-dihydro-6H-pyrrolo[3,4-b]pyridin-6-yl) methanone] it was 17.6 nM; in that of `N#Cc1ccc2c(c1)CN(C(=O)C1CCN(c3ccc(-c4cn[nH]c4)cc3)CC1)C2` [Compound 158, 2-(1-(4-(1H-pyrazol-4-yl)phenyl)piperidine-4-carbonyl) isoindoline-5-carbonitrile], 11.7 nM; in that of `O=C1C2CCCC2CN1CC1CCN(c2ccc(-c3cn[nH]c3)cc2F)CC1` (stereo not shown) [Compound 160, 2-((1-(2-fluoro-4-(1H-pyrazol-4-yl)phenyl)piperidin-4-yl)methyl) hexahydrocyclopenta[c]pyrrol-1(2H)-one], 23.2 nM.
